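Test compounds were applied to cells in 96-well plates for 48 hours at 5 doses. Abbreviation: GI50, concentration required for 50% inhibition of growth.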 Activity calls are given as the source filed them. Cut-off read from the data, not from the text of the source: active = GI50 up to about 1.1 µM and inactive = higher.
Key:
Assay in all cases: inhibition of tumour cell growth, NCI panel, 48 h
786-0 = test system: 786-0
A498 = test system: A498
ACHN = test system: ACHN
COLO 205 = test system: COLO 205
HCT-15 = test system: HCT-15
HOP-92 = test system: HOP-92
KM12 = test system: KM12
Malme-3M = test system: Malme-3M
NCI-H460 = test system: NCI-H460
OVCAR-4 = test system: OVCAR-4
RXF 393 = test system: RXF 393
SF-295 = test system: SF-295
SK-MEL-2 = test system: SK-MEL-2
SK-OV-3 = test system: SK-OV-3
SN12C = test system: SN12C
SNB-19 = test system: SNB-19
UO-31 = test system: UO-31
HL-60 = test system: HL-60
LOX IMVI = test system: LOX IMVI
SNB-75 = test system: SNB-75

SMILES | GI50 (786-0) | GI50 (A498) | GI50 (ACHN) | GI50 (COLO 205) | GI50 (HCT-15) [µM] | GI50 (HOP-92) | GI50 (KM12) | GI50 (Malme-3M) | GI50 (NCI-H460) | GI50 (OVCAR-4) | GI50 (RXF 393) | GI50 (SF-295) | GI50 (SK-MEL-2) | GI50 (SK-OV-3) | GI50 (SN12C) | GI50 (SNB-19) | GI50 (UO-31) | GI50 (HL-60) | GI50 (LOX IMVI) | GI50 (SNB-75)
CCOC1=NC(O)c2cccn2-c2sccc21 (stereo not given) | > 100 µM (inactive) | 56.8 µM (inactive) | > 100 µM (inactive) | 7.73 µM (inactive) | > 100 | > 100 µM (inactive) | > 100 µM (inactive) | > 100 µM (inactive) | > 100 µM (inactive) | > 100 µM (inactive) | > 100 µM (inactive) | > 100 µM (inactive) | > 100 µM (inactive) | 93.3 µM (inactive) | > 100 µM (inactive) | > 100 µM (inactive) | > 100 µM (inactive) | – | – | –
O=c1c2nc3ccccc3c(=O)n2ncn1-c1ccccc1Cl | > 100 µM (inactive) | > 100 µM (inactive) | > 100 µM (inactive) | > 100 µM (inactive) | > 100 | > 100 µM (inactive) | > 100 µM (inactive) | > 100 µM (inactive) | > 100 µM (inactive) | > 100 µM (inactive) | – | > 100 µM (inactive) | > 100 µM (inactive) | > 100 µM (inactive) | > 100 µM (inactive) | > 100 µM (inactive) | > 100 µM (inactive) | > 100 µM (inactive) | > 100 µM (inactive) | > 100 µM (inactive)
O=[N+]([O-])c1ccc(/N=N\c2c(O)c(S(=O)(=O)O)cc3cc(S(=O)(=O)O)ccc23)cc1 | > 100 µM (inactive) | > 100 µM (inactive) | > 100 µM (inactive) | > 100 µM (inactive) | > 100 | > 100 µM (inactive) | – | > 100 µM (inactive) | > 100 µM (inactive) | > 100 µM (inactive) | – | > 100 µM (inactive) | > 100 µM (inactive) | > 100 µM (inactive) | > 100 µM (inactive) | > 100 µM (inactive) | > 100 µM (inactive) | > 100 µM (inactive) | > 100 µM (inactive) | > 100 µM (inactive)
C=CCOC(C)n1c(C)cc(=O)n(C(C)OCC=C)c1=O (stereo not given) | > 100 µM (inactive) | > 100 µM (inactive) | > 100 µM (inactive) | > 100 µM (inactive) | > 100 | 72.1 µM (inactive) | – | > 100 µM (inactive) | – | > 100 µM (inactive) | > 100 µM (inactive) | > 100 µM (inactive) | – | > 100 µM (inactive) | > 100 µM (inactive) | > 100 µM (inactive) | > 100 µM (inactive) | > 100 µM (inactive) | – | > 100 µM (inactive)
COC(=O)c1sc2ncc3c(c2c1N)CCCCCC3 | > 100 µM (inactive) | > 100 µM (inactive) | > 100 µM (inactive) | > 100 µM (inactive) | > 100 | > 100 µM (inactive) | > 100 µM (inactive) | > 100 µM (inactive) | > 100 µM (inactive) | > 100 µM (inactive) | > 100 µM (inactive) | > 100 µM (inactive) | > 100 µM (inactive) | > 100 µM (inactive) | > 100 µM (inactive) | > 100 µM (inactive) | > 100 µM (inactive) | – | > 100 µM (inactive) | 97.3 µM (inactive)
Cc1ccc(C)c(N2C(=O)C(=O)C(c3nc4ccccc4o3)/C(=N/N)C2=O)c1 (stereo not given) | > 100 µM (inactive) | > 100 µM (inactive) | > 100 µM (inactive) | > 100 µM (inactive) | > 100 | > 100 µM (inactive) | > 100 µM (inactive) | > 100 µM (inactive) | > 100 µM (inactive) | > 100 µM (inactive) | > 100 µM (inactive) | > 100 µM (inactive) | > 100 µM (inactive) | > 100 µM (inactive) | > 100 µM (inactive) | > 100 µM (inactive) | > 100 µM (inactive) | > 100 µM (inactive) | – | 95.7 µM (inactive)
Oc1c2cccc1Cc1cccc3c1OCCOCCOCCOCCOc1c(cccc1Cc1cccc(c1O)C3)C2 | > 100 µM (inactive) | > 100 µM (inactive) | > 100 µM (inactive) | > 100 µM (inactive) | > 100 | > 100 µM (inactive) | > 100 µM (inactive) | – | – | > 100 µM (inactive) | > 100 µM (inactive) | 9.29 µM (inactive) | > 100 µM (inactive) | > 100 µM (inactive) | > 100 µM (inactive) | > 100 µM (inactive) | > 100 µM (inactive) | – | > 100 µM (inactive) | 22 µM (inactive)
C/C(=N\NC(=S)N1CCCC1)c1nc2cccnc2[nH]1 | 0.177 µM (active) | 0.869 µM (active) | 0.0897 µM (active) | 0.378 µM (active) | 0.137 | 0.681 µM (active) | 0.321 µM (active) | 0.583 µM (active) | 0.0612 µM (active) | 0.302 µM (active) | – | 0.254 µM (active) | 4.34 µM (inactive) | 0.442 µM (active) | 0.378 µM (active) | 0.37 µM (active) | 0.0634 µM (active) | 0.162 µM (active) | 0.178 µM (active) | 3.85 µM (inactive)
Cc1cc2c(cc1C)[n+]([O-])c(-c1c(Cl)cccc1Cl)c(N)[n+]2[O-] | 52 µM (inactive) | 26.2 µM (inactive) | 36.5 µM (inactive) | 18.7 µM (inactive) | 28.4 | > 100 µM (inactive) | 37.2 µM (inactive) | 31.1 µM (inactive) | 30.3 µM (inactive) | 39 µM (inactive) | – | 42.5 µM (inactive) | 31.6 µM (inactive) | 66.4 µM (inactive) | 50.9 µM (inactive) | 25.5 µM (inactive) | 30.3 µM (inactive) | 26 µM (inactive) | 44.7 µM (inactive) | > 100 µM (inactive)
CCOC(=O)c1c(C)[n+]([O-])c2cc(Cl)c(Cl)cc2[n+]1[O-] | 28.3 µM (inactive) | 20.3 µM (inactive) | 29.3 µM (inactive) | 19.7 µM (inactive) | 14.3 | 3.54 µM (inactive) | 7.89 µM (inactive) | – | 16.3 µM (inactive) | 17.5 µM (inactive) | 17.2 µM (inactive) | 29.4 µM (inactive) | 23.3 µM (inactive) | 26.7 µM (inactive) | 20.4 µM (inactive) | 36.8 µM (inactive) | 24.5 µM (inactive) | < 0.01 µM (active) | 15.3 µM (inactive) | –
COC(=O)C1C2CC3C1C3C2C(=O)OC (stereo not given) | > 100 µM (inactive) | > 100 µM (inactive) | > 100 µM (inactive) | > 100 µM (inactive) | > 100 | > 100 µM (inactive) | > 100 µM (inactive) | > 100 µM (inactive) | > 100 µM (inactive) | > 100 µM (inactive) | > 100 µM (inactive) | > 100 µM (inactive) | > 100 µM (inactive) | > 100 µM (inactive) | > 100 µM (inactive) | > 100 µM (inactive) | > 100 µM (inactive) | – | > 100 µM (inactive) | > 100 µM (inactive)
Nc1ccc(-c2nc3ccc(F)cc3s2)cc1Cl | > 61.1 µM (inactive) | 0.402 µM (active) | > 100 µM (inactive) | > 100 µM (inactive) | > 100 | 24.9 µM (inactive) | > 100 µM (inactive) | > 100 µM (inactive) | – | 0.0174 µM (active) | > 41.5 µM (inactive) | > 47.1 µM (inactive) | > 84.1 µM (inactive) | > 100 µM (inactive) | > 100 µM (inactive) | > 62.2 µM (inactive) | > 100 µM (inactive) | – | > 73.1 µM (inactive) | 37 µM (inactive)
CC(Oc1cc2oc(=O)cc(-c3ccccc3)c2cc1Cl)C(=O)O (stereo not given) | > 100 µM (inactive) | > 100 µM (inactive) | > 100 µM (inactive) | > 100 µM (inactive) | – | > 100 µM (inactive) | > 100 µM (inactive) | > 100 µM (inactive) | > 100 µM (inactive) | > 100 µM (inactive) | > 100 µM (inactive) | > 100 µM (inactive) | – | > 100 µM (inactive) | > 100 µM (inactive) | > 100 µM (inactive) | > 100 µM (inactive) | > 100 µM (inactive) | > 100 µM (inactive) | > 100 µM (inactive)
O=C1OC(=O)C2C3CCC(O3)C12 (stereo not given) | > 100 µM (inactive) | > 100 µM (inactive) | > 100 µM (inactive) | > 100 µM (inactive) | – | > 100 µM (inactive) | > 100 µM (inactive) | > 100 µM (inactive) | > 100 µM (inactive) | – | > 100 µM (inactive) | > 100 µM (inactive) | > 100 µM (inactive) | > 100 µM (inactive) | > 100 µM (inactive) | > 100 µM (inactive) | > 100 µM (inactive) | > 100 µM (inactive) | – | –
Cc1occc1/C(S)=N\c1ccc(Cl)c(C(=O)OCC2CC2)c1 | 44.9 µM (inactive) | 35.8 µM (inactive) | 34.5 µM (inactive) | 26.7 µM (inactive) | 31.5 | 30.8 µM (inactive) | 32.3 µM (inactive) | 88.5 µM (inactive) | 57.9 µM (inactive) | 32 µM (inactive) | – | 29.4 µM (inactive) | 47.4 µM (inactive) | 35.6 µM (inactive) | 34.9 µM (inactive) | 54.2 µM (inactive) | 58.5 µM (inactive) | 28.4 µM (inactive) | 29.2 µM (inactive) | 23.9 µM (inactive)
OC1[C@@H]2[C@@H](O)[C@H](O)[C@@H](O)N2C[C@@H]1O (stereo not given in full) | > 100 µM (inactive) | > 100 µM (inactive) | > 100 µM (inactive) | > 100 µM (inactive) | > 100 | > 100 µM (inactive) | > 100 µM (inactive) | > 100 µM (inactive) | > 100 µM (inactive) | > 100 µM (inactive) | > 100 µM (inactive) | > 100 µM (inactive) | > 100 µM (inactive) | > 100 µM (inactive) | > 100 µM (inactive) | > 100 µM (inactive) | > 100 µM (inactive) | – | > 100 µM (inactive) | > 100 µM (inactive)

From ChEMBL document CHEMBL1201862, “PubChem BioAssay data set” (2004)
